Test results: EP3070175A1, “TEST FOR DETERMINING SUSCEPTIBILITY OR RESISTANCE TO POLYMYXINS IN ENTEROBACTERIACEAE” (Université de Fribourg, priority 2015, dated 2016)

Legend:
[1] = tested on: E. coli; experiment: Polymyxin test: colorimetric detection of growth (glucose metabolization, phenol red) in presence of colistin sulphate; type: cell-based, Escherichia coli; parameters: key: +, yellow; -, orange; conditions: colistin sulphate 3.75 mg/L final, visual colour change, up to 4 h at 37°C
Description: (§1) Each inoculum was prepared by mixing 1 öse (10 µl) of a fresh culture of the tested bacteria in 5 ml of sterile NaCl 0.85% (at a density of 3 Mac Farland, i.e. about 10^9 CFU/ml).
(§2) 250 ml of reactive medium was prepared by mixing the compounds hereafter: • a broth powder of a non selective growth medium for bacteria, the Cation-Adjusted Mueller-Hinton broth (MHB-CA) : 6.25 g • a colour indicator, the phenol red : 0.0125 g • sterile distilled water 225 ml • sterile D (+)-glucose (10 %) anhydrous (sterilization by filtration) : 25 ml
(§3) The pH of the final reactive medium was adjusted to 6.6 and 6.7 with HCl 1M.
(§4) Colistin or polymyxin B was added or not at the concentration of 5 mg/L in the reactive medium. Standard colistin sulphate and polymyxin B were from Sigma Aldrich (Saint-Louis, France). Those antibiotic molecule powders were kept at 4°C before their use, whereas polymyxin dilutions were kept at -20°C.
(§5) For each strain, two wells of a plastic sterile plate with 96 shaped wells were inoculated in parallel with and without polymyxin (colistin sulphate or polymyxin B) in order to compare their colour change.
(§6) Plastic sterile plates were from Sarstedt (Nümbrecht, Germany). The tray may be prepared as follows : • 1. 150 µl of reactive medium colistin free (obtained in 1.) in the first line • 2. 150 µl of reactive medium with 5 mg/l of colistin sulphate in the second line (final concentration = 3.75 mg/l) • 3. 50 µl of NaCl alone in the first column (one well colistin-free and one well with colistin sulphate) (medium control) • 4. 50 µl of the bacterial suspension (obtained in 2.) for the control strains and for every strain in the other column (one well colistin-free and one well with colistin)
(§7) After mixing of the bacterial suspension to the reactive medium by pipetting up and down, the final concentration of bacteria was 2.5.10^8 CFU/ml in each well and the final selective concentration of colistin or polymyxin B in the well with polymyxin was 3.75 mg/L.
(§8) The results of the tests were recorded at 10 min (checking for no spontaneous colour change in the well) and then every hour for a maximum of 4 hours by visual inspection. No colour change of the well with colistin sulphate or polymyxin B indicated susceptibility to colistin sulphate or polymyxin B and negativity of those tests. On the contrary, a colour change (orange to yellow) indicates the positivity of the test meaning growth capability (related to glucose metabolism) in presence of colistin sulphate or polymyxin B, i.e. resistance to colistin sulphate or polymyxin B.
(§9) All experiments were repeated in triplicate.

[2] = tested on: P. mirabilis; experiment: as above; type: cell-based, Proteus mirabilis; parameters: key: +, yellow; -, orange; conditions: strain Pmir; colistin sulphate 3.75 mg/L final; visual colour change, up to 4 h at 37°C
Description: as §1, §2, §3, §4, §5
Plastic sterile plates were from Sarstedt (Nümbrecht, Germany). The tray may be prepared as follows : • 1. […]
The results of the tests were recorded at 10 min (checking for no spontaneous colour change in the well) and then every hour for a maximum of 4 hours by visual inspection. […]

[3] = tested on: E. cloacae; experiment: as above; type: cell-based; parameters: key: +, yellow; -, orange; conditions: colistin sulphate 3.75 mg/L final, visual colour change, up to 4 h at 37°C
Description: as §1, §2, §3, §4, §5, §6, §7, §8, §9

[4] = tested on: M. morganii; experiment: as above; type: cell-based; parameters: key: +, yellow; -, orange; conditions: strain Mmor; colistin sulphate 3.75 mg/L final; visual colour change, up to 4 h at 37°C
Description: as §1, §2, §3, §4, §5, §6, §7, §8, §9

[5] = tested on: P. stuartii; experiment: as above; type: cell-based; parameters: key: +, yellow; -, orange; conditions: strain Pstu; colistin sulphate 3.75 mg/L final; visual colour change, up to 4 h at 37°C
Description: as §1, §2, §3, §4, §5, §6, §7, §8, §9

[6] = tested on: K. pneumoniae; experiment: MIC determination, broth microdilution in Cation-Adjusted Mueller-Hinton broth (CLSI); type: cell-based, Klebsiella pneumoniae; conditions: for Colistin resistance: EUCAST breakpoints
Description: (§10) Determination of MIC values were performed using the reference technique (broth microdilution in Cation-Adjusted Mueller-Hinton broth) according to the CLSI guidelines. Polymyxin B and colistin (Sigma-Aldrich, Saint-Louis) were tested over a range dilution from 0.12 to 128 µg/ml and 5.10^5 CFU/ml of bacteria in each well was used. Following the EUCAST breakpoints (http://www.eucast.org/), strains with a colistin MICs of ≤ 2 µg/ml were categorized as susceptible, although those with MICs of > 2 µg/ml were resistant.
as §9

[7] = tested on: E. coli; experiment: as above; type: cell-based, Escherichia coli; conditions: for Colistin resistance: EUCAST breakpoints
Description: as §10, §9

colistin sulphate
Results of the method of the invention ([1]; strain 3 FR): -
Results of the method of the invention ([1]; strain 5 FR): -
Results of the method of the invention ([1]; strain 10 FR): -
Results of the method of the invention ([1]; strain 27563): +
Results of the method of the invention ([1]; strain 27837): +
Results of the method of the invention ([1]; strain 27850): +
Results of the method of the invention ([1]; strain 27852): +
Results of the method of the invention ([1]; strain 30742): +
Results of the method of the invention ([1]; strain ATCC 25922): -
Results of the method of the invention ([1]; strain C140): -
Results of the method of the invention ([1]; strain Top10): -
Results of the method of the invention [2]: +
Results of the method of the invention ([3]; strain 7 FR): -
Results of the method of the invention ([3]; strain C28): +
Results of the method of the invention ([3]; strain C129): -
Results of the method of the invention ([3]; strain C144): -
Results of the method of the invention ([3]; strain HM): +
Results of the method of the invention [4]: +
Results of the method of the invention [5]: +
Colistin MIC ([6]; strain 1 FR): 0.12 µg/mL
Colistin resistance ([6]; strain 1 FR): - (strains with a colistin MICs of ≤ 2 µg/ml were categorized as susceptible)
Colistin MIC ([6]; strain 2 FR): 0.12 µg/mL
Colistin resistance ([6]; strain 2 FR): - (strains with a colistin MICs of ≤ 2 µg/ml were categorized as susceptible)
Colistin MIC ([6]; strain 4 FR): 0.25 µg/mL
Colistin resistance ([6]; strain 4 FR): - (strains with a colistin MICs of ≤ 2 µg/ml were categorized as susceptible)
Colistin MIC ([6]; strain 9 FR): 0.5 µg/mL
Colistin resistance ([6]; strain 9 FR): - (strains with a colistin MICs of ≤ 2 µg/ml were categorized as susceptible)
Colistin resistance ([6]; strain 11 FR): + (those with MICs of > 2 µg/ml were resistant)
Colistin MIC ([6]; strain 11 FR, resistance mechanism Unknown): 32 µg/mL
Colistin resistance ([6]; strain 75b): + (those with MICs of > 2 µg/ml were resistant)
Colistin MIC ([6]; strain 75b, PhoP D191Y): 128 µg/mL
Colistin resistance ([6]; strain AF1b): + (those with MICs of > 2 µg/ml were resistant)
Colistin MIC ([6]; strain AF1b, PmrB T157P): 16 µg/mL
Colistin resistance ([6]; strain C23): + (those with MICs of > 2 µg/ml were resistant)
Colistin MIC ([6]; strain C23, ΔmgrB): 128 µg/mL
Colistin resistance ([6]; strain C25): + (those with MICs of > 2 µg/ml were resistant)
Colistin MIC ([6]; strain C25, PmrA G53C): 64 µg/mL
Colistin resistance ([6]; strain C26): + (those with MICs of > 2 µg/ml were resistant)
Colistin MIC ([6]; strain C26, mgrB gene truncated with IS): 128 µg/mL
Colistin resistance ([6]; strain C27): + (those with MICs of > 2 µg/ml were resistant)
Colistin MIC ([6]; strain C27, mgrB Δnt23/33 (frameshift)): >128 µg/mL
Colistin MIC ([6]; strain C112): 0.12 µg/mL
Colistin resistance ([6]; strain C112): - (strains with a colistin MICs of ≤ 2 µg/ml were categorized as susceptible)
Colistin MIC ([6]; strain C115): 0.12 µg/mL
Colistin resistance ([6]; strain C115): - (strains with a colistin MICs of ≤ 2 µg/ml were categorized as susceptible)
Colistin MIC ([6]; strain C130): 0.12 µg/mL
Colistin resistance ([6]; strain C130): - (strains with a colistin MICs of ≤ 2 µg/ml were categorized as susceptible)
Colistin MIC ([6]; strain C132): 0.12 µg/mL
Colistin resistance ([6]; strain C132): - (strains with a colistin MICs of ≤ 2 µg/ml were categorized as susceptible)
Colistin resistance ([6]; strain T1b): + (those with MICs of > 2 µg/ml were resistant)
Colistin MIC ([6]; strain T1b, mgrB gene truncated with IS5-like): 128 µg/mL
Colistin MIC ([7]; strain 3 FR): 0.12 µg/mL
Colistin resistance ([7]; strain 3 FR): - (strains with a colistin MICs of ≤ 2 µg/ml were categorized as susceptible)
Colistin MIC ([7]; strain 5 FR): 0.25 µg/mL
Colistin resistance ([7]; strain 5 FR): - (strains with a colistin MICs of ≤ 2 µg/ml were categorized as susceptible)
Colistin MIC ([7]; strain 10 FR): 0.25 µg/mL
Colistin resistance ([7]; strain 10 FR): - (strains with a colistin MICs of ≤ 2 µg/ml were categorized as susceptible)
Colistin resistance ([7]; strain 27563): + (those with MICs of > 2 µg/ml were resistant)
Colistin MIC ([7]; strain 27563, resistance mechanism Unknown): 16 µg/mL
Colistin resistance ([7]; strain 27837): + (those with MICs of > 2 µg/ml were resistant)
Colistin MIC ([7]; strain 27837, resistance mechanism Unknown): 16 µg/mL
Colistin resistance ([7]; strain 27850): + (those with MICs of > 2 µg/ml were resistant)
Colistin MIC ([7]; strain 27850, resistance mechanism Unknown): 16 µg/mL
Colistin resistance ([7]; strain 27852): + (those with MICs of > 2 µg/ml were resistant)
Colistin MIC ([7]; strain 27852, resistance mechanism Unknown): 8 µg/mL
Colistin resistance ([7]; strain 30742): + (those with MICs of > 2 µg/ml were resistant)
Colistin MIC ([7]; strain 30742, resistance mechanism Unknown): 8 µg/mL
Colistin MIC ([7]; strain ATCC 25922): 0.25 µg/mL
Colistin resistance ([7]; strain ATCC 25922): - (strains with a colistin MICs of ≤ 2 µg/ml were categorized as susceptible)
Colistin MIC ([7]; strain C140): 0.12 µg/mL
Colistin resistance ([7]; strain C140): - (strains with a colistin MICs of ≤ 2 µg/ml were categorized as susceptible)
Colistin MIC ([7]; strain Top10): 0.12 µg/mL
Colistin resistance ([7]; strain Top10): - (strains with a colistin MICs of ≤ 2 µg/ml were categorized as susceptible)
